We go through 2 compounds from PMC10660337, “Mutate and Conjugate: A Method to Enable Rapid In-Cell Target Validation” (ACS Chemical Biology, 2023).

In test [1] the test system is T1, BRD4(1)^L94C transiently expressed in HEK293T cells.
T1 construct: the L94C mutation in the first bromodomain of BRD4 [BRD4(1)]; StrepII; expressed in transfected cells; host or cells: HEK293T
The test is described as follows: OXFBD04 (3) competition assay in cells. The test is classed as cell-based, human. As to conditions: OXFBD04 30 min preincubation, then probe 10 µM for 1 h. The procedure:
(§1) Compound engagement with BRD4(1)^L94C was further validated by using an immunoprecipitation (IP) assay (Figure S22). Here, transfected HEK293T cells expressing StrepII-tagged BRD4(1)^L94C or StrepII-tagged BRD4(1)^WT were incubated with compound 42 before being lysed. The StrepII-tagged bromodomains were then pulled down using anti-StrepII antibodies, and the samples were separated by SDS-PAGE for analysis. […]
(§2) reaction mix was taken and 8 µL of Lamelli buffer added, and the samples denatured by heating at 95 °C for 10 min. Samples were separated by gel electrophoresis on NuPAGE™ 4–12%, Bis-Tris precast polyacrylamide gels (Thermofisher). Following electrophoresis, gels were stained for 15 min with InstantBlueTM Coomasie® stain (Abcam), destained, and imaged using Bio-rad molecular imager.
(§3) Bio-rad Image Lab 6.1 was used to process the data.
(§4) In-cell target engagement
(§5) In-cell labeling by clickable probes […]
(§6) Gels were imaged for fluorescence using Bio-rad molecular imager and then stained for 15 min with InstantBlueTM Coomasie® stain (Abcam), destained, and imaged using Bio-rad molecular imager. […]
(§7) Transfected HEK293T cells at ~90% confluency were incubated for 30 min with a DMSO control or varying concentrations of OXFBD04 diluted in Opti-MEM media. […] Cells were then harvested, processed, and analysed using the previously described protocol above. […]

Test [2] concerns T2, BRD4(1)^WT transiently expressed in HEK293T cells.
T2 construct: the first bromodomain of BRD4 [BRD4(1)]; StrepII; expressed in transfected cells; host or cells: HEK293T
The test is described as follows: In-cell labeling by clickable probes, in-gel fluorescence. In kind it is cell-based, human. As to conditions: 10 μM probe, 1 h. The procedure:
To evaluate proteome-wide selectivity of the clickable probes, HEK293T cells transiently expressing BRD4(1)^L94C or BRD4(1)^WT were incubated with 10 μM of probes 28–30 and 42 for 1 h before the cells were lysed and the CuAAC reaction with TAMRA-PEG3-azide was conducted (Figure 7A). […]
as §2, §3, §4
(§8) In-cell labeling by clickable probes
(§9) Transfected HEK293T cells at ~90% confluency were incubated for 1 h with a DMSO control (0.5% DMSO final concentration) or a click probe (10 µM, 0.5% DMSO final concentration) diluted in Opti- […]
Cells were then harvested and lysed using the previously described protocol above. The resulting cell lysates were diluted to 2 mg/mL using the previously described protocol above.
Cell lysates (50 µL) were then incubated with TAMRA-PEG3-Azide (200 µM), TCEP·HCl (2 mM), TBTA (200 µM), and CuSO4 (2 mM), for 1 h at rt in the dark. Samples were then prepared and separated by gel electrophoresis using the previously described protocol above.
Gels were imaged for fluorescence using Bio-rad molecular imager and then stained for 15 min with InstantBlueTM Coomasie® stain (Abcam), destained, and imaged using Bio-rad molecular imager.
Typically, the very bottom of the gel was removed prior to imaging due to residual, unreacted, TAMRA-PEG3-Azide, which would cause oversaturation and poor image quality. […]
MEM media. Cells were then harvested and lysed using the previously described protocol above. […]

The test system of test [3] is BRD4(1,2)^L94C transiently expressed in HEK293T cells. The test is described as follows: In-cell labeling of tandem bromodomain. The test is classed as cell-based, human. Here is the method: as §2, §3, §4, §8, §9
(§10) Cells were then harvested and lysed using the previously described protocol above. The resulting cell lysates were diluted to 2 mg/mL using the previously described protocol above. […]
as §6, §7

The target in test [4] is BRD4(1,2)^WT transiently expressed in HEK293T cells (Homo sapiens, UniProt O60885). Nature of the test: In-cell labeling of tandem bromodomain. The test is classed as cell-based. The procedure: as §2, §3, §4, §8, §9, §10, §6, §7
The test system of test [5] is T3, StrepII-tagged BRD4(1)^L94C or BRD4(1)^WT in HEK293T cells.
T3 construct: the L94C mutation in the first bromodomain of BRD4 [BRD4(1)]; StrepII; expressed in transfected cells; host or cells: HEK293T
The test is described as follows: Immunoprecipitation of StrepII-tagged bromodomains after in-cell labeling. The test is classed as cell-based, human. Particulars: 10 µM probe, 1 h, anti-StrepII pull-down, in-gel fluorescence. Here is the method:
as §1, §2, §3, §4, §5, §6, §7

Consider `C#CCOc1ccc(-c2c(C)noc2NC(=O)C=C)cc1` [Compound 30], for which, in test [1], the “BRD4(1)^L94C labeling by probe with increasing concentration of OXFBD04 (3)” value is on record as “concomitant reduction”. Besides, the “In-cell labeling of BRD4(1)^WT (fluorescent band ∼49 kDa)” value in test [2] is “not visible”.

For `C#CCOc1cc(NC(=O)C=C)ccc1N1CCCC1=O` [Compound 42], the “BRD4(1)^L94C labeling by probe with increasing concentration of OXFBD04 (3)” value in test [1] is listed as “decreased levels”. In addition, the “In-cell labeling of BRD4(1,2)^L94C (fluorescent band ∼80 kDa)” value in test [3] was “selectively label”. Besides, the “In-cell covalent engagement with BRD4(1,2)^WT” value in test [4] is on record as “no covalent engagement”. Also, in test [5], the “Engagement of StrepII-tagged BRD4(1)^L94C versus BRD4(1)^WT by immunoprecipitation” value is “selective engagement of BRD4(1)^L94C”.
